Where no end group is shown, it is not given here.

T1 sequence (P02787 20-698): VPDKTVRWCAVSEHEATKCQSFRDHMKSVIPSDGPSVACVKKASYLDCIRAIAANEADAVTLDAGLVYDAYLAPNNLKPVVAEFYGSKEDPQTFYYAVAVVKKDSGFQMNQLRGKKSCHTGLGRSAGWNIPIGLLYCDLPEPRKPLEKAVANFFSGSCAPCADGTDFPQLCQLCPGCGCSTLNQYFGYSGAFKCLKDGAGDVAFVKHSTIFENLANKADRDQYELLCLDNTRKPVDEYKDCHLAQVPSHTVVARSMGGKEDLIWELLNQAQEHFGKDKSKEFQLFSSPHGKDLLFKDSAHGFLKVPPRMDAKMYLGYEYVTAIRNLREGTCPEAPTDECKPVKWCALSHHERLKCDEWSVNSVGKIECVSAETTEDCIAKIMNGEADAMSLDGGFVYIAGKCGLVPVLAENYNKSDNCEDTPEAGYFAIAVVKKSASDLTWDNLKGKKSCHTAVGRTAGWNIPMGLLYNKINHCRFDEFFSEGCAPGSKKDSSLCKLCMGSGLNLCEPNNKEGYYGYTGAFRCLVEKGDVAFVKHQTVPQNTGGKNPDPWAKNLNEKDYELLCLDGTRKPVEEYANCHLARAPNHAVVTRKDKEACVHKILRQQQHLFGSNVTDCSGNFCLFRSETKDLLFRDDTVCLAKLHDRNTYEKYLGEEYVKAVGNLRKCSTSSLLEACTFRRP

One test has as its target T1, Transferrin (Homo sapiens, UniProt P02787). As to the kind of experiment: SPR solution phase KD of candidate affinity elements, transferrin immobilized (Biacore T100). In kind it is binding. The conditions noted are these: steady-state response, 25° C., PBST. As for the experimental part:
Transferrin 25 μg/ml in immobilization buffer selected for correct pH was then applied 302 at a flow rate of 5 to 10 μl/min for a contact time of about 5 to 10 minutes, allowing the amine functionality on the transferrin 308 to displace the activated NHS ester and bond to the surface via an amide bond. Finally, ethylene diamine (1M ethylene diamine-HCl at pH 8.5) was applied 304 at a flow rate of 5 to 10 μl/min for a contact time of about 6 to 7 minutes to deactivate any remaining reactive groups on the dextran chip surface. Flow rates and contact times are adjusted as necessary to provide the surface concentration of target desired for the intended application, and may vary by target. In general, for evaluating whether binding occurs, it is preferable to immobilize a relatively large quantity of target, and higher flow rates and/or longer contact times may be used. For determining kinetics, it is preferable to limit the amount of target immobilized so as to minimize rebinding and avidity effects, and lower flow rates and/or contact times may be used.
Candidate affinity elements for the transferrin synbody TRF19, TRF21, TRF23, TRF24, TRF25, and TRF26 were individually evaluated for solution phase KD with respect to transferrin by SPR analysis. Because the off rates for these polypeptides were very high, KD values were estimated by measuring steady-state response for at least five concentrations in a two-fold dilution series, each concentration tested in duplicate. For each experiment, response data were processed using a reference surface to correct for bulk refractive index changes and any non-specific binding. Data were also double referenced using responses from blank running buffer injections. Each experiment was conducted at 25° C. using PBST (0.01M Phosphate Buffered Saline, 0.138M NaCl, 0.0027M KCl, 0.05% surfactant Tween20, pH 7.4) as the running buffer on a Biacore T100 instrument. Analytes were injected for 60 s at a flow rate of 30 μl/min. The antigen surfaces were regenerated with 30 s consecutive pulses of NaOH/NaCl (50 mM NaOH in 1M NaCl) and Glycine (10 mM glycine-HCl, pH 2.5).
A word on the Kd: it is the free concentration of one partner at which half of the binding sites on the other are occupied at equilibrium, for simple one-to-one binding. The sequence KEDNPGYSSEQDYNKLDGSC [TRF19] had a Kd of approximately 150 µM.
Still for that read-out and setting: then APYAPQQIHYWSTLGFKGSC [TRF25], with approximately 60 µM.
The same measure, in the same setting: then SVKPWRPLITGNRWLNSGSC [TRF24], with approximately 50 µM; and QYHHFMNLKRQGRAQAYGSC [TRF21], with approximately 60 µM.

In the next test the target is T1, Transferrin. As to the kind of experiment: SPR steady state affinity of mRNA display clones (Biacore T100). In kind it is binding.
Conditions: not given
The procedure:
Five clones (see Table 15) were selected, synthesized and purified by HPLC for characterization by surface plasmon resonance (SPR) (T 100 instrument from Biacore). Transferrin was immobilized using standard NHS/EDC immobilization chemistry according to the methods described in Frostell-Karlsson, A., Remaeus, A., Andersson, K., Borg, P., Hamalainen, M., and Karlsson, R. (2000) J. Med. Chem. 43, resulting in 9758 RU of immobilized protein. HPLC purified peptides were injected over the surface and sensograms were recorded at multiple concentrations (32, 16, 8, 4, 2, 1, 0.5, 0.25, 0.125, and 0.0625 μM). Affinity plots were generated for each peptide and fit using a steady state affinity model.
A general note: Surface plasmon resonance follows binding to a sensor surface in real time, without labels.
With AHKVVPQRQMRHAYSRYGSC [TBPM023], the “fold improvement of affinity in comparison to TRF26” value is “more than 10 fold”.

Staying with this test, now noted: steady state affinity model.
In turn, GHKVVPQRQMRHAYNRNGSC [TBPL025] returned a Kd of 150 µM.
As to GHKVVPQRQIRHAYNRYGSC [TBPL005], binding was characterised by a dissociation constant (Kd) of 150 µM.
Sequence AHKVVPQRQMRHAYSRYGSC [TBPM023] came in with a Kd of 11.6 µM.

Another test has as its target T1, Transferrin. As to the kind of experiment: Peptide microarray ranking, labeled transferrin with E. coli lysate competitor. In kind it is binding. Particulars: array with organic prewash. As for the experimental part: Several polypeptides were identified as candidate affinity elements for synbodies against an arbitrarily chosen protein target, transferrin, by incubating transferrin on the polypeptide microarray in the presence of E. coli lysate competitor. Transferrin was randomly direct-labeled at free amines with Alexa™ 555, and E. coli lysate was randomly direct-labeled at free amines with Alexa™ 647. Three replicate arrays were passivized by applying a mixture of BSA and mercaptohexanol for one hour. The arrays were blocked with unlabelled E. coli lysate for one hour, then washed three times with TBST (0.05% Tween) followed by three times with water. A mixture of labeled transferrin and labeled E. coli lysate was applied to the three replicate arrays and incubated for three hours. The arrays were again washed three times with TBST (0.05% Tween) followed by three times with water, and scanned at 555 nm and 647 nm using an array reader. Polypeptides were ranked as candidates for inclusion as affinity elements of synbodies by computing a score for each polypeptide equal to the mean raw 555 nm intensity over the six replicate features, squared, divided by the mean raw 647 nm intensity over the six replicate features. This simple scoring function tends to favor candidate polypeptides that bind at least moderate affinity, since otherwise the 555 nm intensity would be relatively lower, and that are relatively specific, since otherwise the 647 nm intensity would be relatively higher and contribute to a relatively lower score. Many variations of this ranking and identification process can be used, such as, by way of non-limiting examples, two-color comparisons against other competitors; comparisons with data taken in separate experiments with respect to other targets; and use of scoring functions taking into account other factors, employing other functional relationships, and/or involving statistical analysis and/or preprocessing of data and/or correcting for background fluorescence and/or other factors affecting the accuracy of the measured intensities. Ten polypeptides (Table 1) were identified for further evaluation for use as affinity elements in synbodies by choosing the polypeptides having the highest score (one polypeptide was rejected as difficult to synthesize, so the polypeptides chosen were ten of those having the eleven highest scores).
After preparation of the array in accordance with the methods previously described in Example 2, the array was washed one time for five minutes in 7.33% acetonitrile, 37% isopropanol, 0.55% trifluoroacetic acid, and 55% water. Alexa 555 labeled target protein transferrin was applied, together with Alexa 647 labeled E. coli lysate competitor, to the prewashed array and to an identical array without organic prewash. […] 5,010 on the array without organic prewash, but ranked no. 9601 on the prewashed array. Conversely, peptide TRF-21, shown by SPR analysis to be a relatively strong binder of transferrin, rose in rank from 84 on the non-prewashed array to rank no. 5 on the prewashed array.
In the case of LDPLFNTSIMVNWHRWMGSC [TRF27], the Rank -- prewash was 3325.
For the sequence GQTQFAMHRFQQWYKIKGSC [TRF20], the Rank -- prewash was 289.
On the same count and under the same terms, then KEDNPGYSSEQDYNKLDGSC [TRF19], with 9601; and HAYKGPGDMRRFNHSGMGSC [TRF22], with 61.
Same read-out and setting: the result for APYAPQQIHYWSTLGFKGSC [TRF25] reads 603.
Still for that read-out and setting: the result for SVKPWRPLITGNRWLNSGSC [TRF24] reads 958.
QYHHFMNLKRQGRAQAYGSC [TRF21] displayed a Rank -- prewash of 5.

Staying with this test, now noted: array without organic prewash.
Turning to LDPLFNTSIMVNWHRWMGSC [TRF27], the Rank - non-prewash was 1289.
GQTQFAMHRFQQWYKIKGSC [TRF20] displayed a Rank - non-prewash of 18.
Regarding KEDNPGYSSEQDYNKLDGSC [TRF19], the Rank - non-prewash came out at 5010.
With HAYKGPGDMRRFNHSGMGSC [TRF22], the Rank - non-prewash was 711.
For APYAPQQIHYWSTLGFKGSC [TRF25], the Rank - non-prewash amounted to 736.
On the same count and under the same terms, then SVKPWRPLITGNRWLNSGSC [TRF24], with 71; and QYHHFMNLKRQGRAQAYGSC [TRF21], with 84.

The test is the same for the next values; noted with them: array without organic prewash; listed as TRF-19.
Regarding KEDNPGYSSEQDYNKLDGSC [TRF19], the Rank - non-prewash was 5,010.

The target in another test is TNF-α (Homo sapiens, UniProt P01375). As to the kind of experiment: SPR of TNF1 lead and mutant peptides on captured TNF-α (Biacore A100). In kind it is binding.
TNF-α, sequence (P01375 77-233 limits assumed, species assumed): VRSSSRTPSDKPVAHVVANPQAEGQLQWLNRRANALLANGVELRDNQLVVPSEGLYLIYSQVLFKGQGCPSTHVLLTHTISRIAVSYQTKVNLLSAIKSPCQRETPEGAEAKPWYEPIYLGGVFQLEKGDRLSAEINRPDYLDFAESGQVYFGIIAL
Conditions: not given
The source says:
Scanning Mutagenesis of the TNF1 Lead Peptide. After lead identification, the next step in the AMPLI algorithm is characterization of point mutations in the lead heteropolymer. Using short peptides makes it chemically feasible to synthesize a significant fraction of the point-mutant space, which can then be screened for enhanced point mutations. For example, all possible point mutations in the 17 randomized positions using all 20 natural amino acids could be synthesized and screened within a single 384-well plate (323 total point-mutants). However, libraries containing all 20 natural amino acids are not required for affinity optimization of protein-protein interactions. A library of TNF1 point-mutants containing all substitutions of the amino acid set {Y, A, D, S, K, N, V, W} in each of the 17 randomized positions (132 unique point-mutants) was synthesized. Tyrosine (Y), alanine (A), aspartic acid (D) and serine (S) were selected because of their effectiveness in producing high affinity interactions when substituted into the complementary-determining regions (CDRs) of synthetic antibodies (Felouse, Proceedings of the National Academy of Sciences 101(34):12467, 2004), lysine (K) was selected to balance the charge in the substitution set, asparagine (N), valine (V) and tryptophan (W) were selected to span the hydropathicity range (Kyte J & Doolittle R F, Journal of Molecular Biology 157(1):105-132, 1982). […] This concentration was used to increase the high-end dynamic range for quantifying enhancing point mutations at the expense of low-end dynamic range for quantifying detrimental point mutations.
Point-mutant libraries were prepared in 96-well stock plates From the stock plate, peptides were diluted to 50 μM concentration in Biacore HBS-EP buffer (GE Healthcare, Piscataway, N.J.) containing 1 mg/ml carboxymethyl-dextran (Sigma-Aldrich, St. Louis, Mo.) to reduce non-specific binding to the CM-5 SPR chip surface. TNF-α was captured on a CM-5 chip surface at different capture levels on spots 1, 2, 4, and 5 across all four flow cells corresponding to a 40-200 RU range of predicted Rmax binding responses. Spot 3 contained only immobilized neutravidin and served as a reference spot.
Using the prepared 96-well plates and Biacore A100 SPR instrument, four peptides were flowed separately, in parallel, through the four flow cells over all 4 TNF-α spots and the neutravidin reference spot, with a 60 second association phase and 300 second dissociation phase. SPR sensorgrams were recorded for each peptide response with all 4 TNF-α spots and the neutravidin reference spot across the four flow cells on the SPR chip. Surface regeneration was performed after every 12 injections in each flow cell with Biacore Glycine 2.5 regeneration solution (GE Healthcare, Piscataway, N.J.). Point-mutant reference subtracted, peptide molecular weight adjusted, responses at the late binding region of the sensorgram (a few seconds before dissociation) were compared to the response of the TNF1 lead
Purified point-mutant affinities were measured on the Biacore A100 using SPR equilibrium binding response across a series of peptide concentrations on an SPR chip with TNF-α captured as described above.
These sequences were synthesized and purified using standard solid-phase FMOC synthesis and HPLC purification.
Regarding FERYPLKMPWSFLQSRQGSC [D4Y + M7K], the “Kd Fold-Change Relative to Lead” value is 9.4 ± 1.6.
As to FERDPLMMPWKFLQSRQGSC [Synbody S11K], the “Component Binding ΔG Contribution” value was -0.82 ± 0.13 kcal/mol and the “Kd Fold-Change Relative to Lead” value amounted to 3.9 ± 0.9.
On to FERSYLMMPWKFLQSRQGSC [D4S + P5Y + S11K], for which the “Kd Fold-Change Relative to Lead” value is on record as 23 ± 3.2 and the “observed binding energy difference to the D4S+P5Y+M7K+S11K quadruple mutant” value is -0.94 ± 0.12 kcal/mol.
In the case of FERYPLMMPWSFLQSRQGSC [Synbody D4Y], the “Component Binding ΔG Contribution” value is -0.74 ± 0.10 kcal/mol and the “Kd Fold-Change Relative to Lead” value is on record as 3.6 ± 0.6.
For the sequence FERYPLMMPWKFLQSRQGSC [D4Y + S11K], the “Kd Fold-Change Relative to Lead” value came to 17 ± 2.5.

The same test, now with this note: SPR equilibrium binding response; read-out: Kd (observed).
Consider FERYPLKMPWSFLQSRQGSC [D4Y + M7K], for which the Kd was 17 ± 1.9 µM.
Same read-out and setting: then FERDPLMMPWKFLQSRQGSC [Synbody S11K], with 40 ± 7.2 µM; and FERSYLMMPWKFLQSRQGSC [D4S + P5Y + S11K], with 7 ± 0.5 µM.
Same read-out and setting: then FERYPLMMPWSFLQSRQGSC [Synbody D4Y], with 44 ± 4.8 µM; and FERYPLMMPWKFLQSRQGSC [D4Y + S11K], with 9.3 ± 0.7 µM.

The test is the same for the next values; noted with them: calculated from dissociation constants.
FERYPLKMPWSFLQSRQGSC [D4Y + M7K]: the “Binding ΔG (observed)” value was -6.54 ± 0.07 kcal/mol.
On the same count and under the same terms, the result for FERDPLMMPWKFLQSRQGSC [Synbody S11K] reads -6.03 ± -.10 kcal/mol; that for FERSYLMMPWKFLQSRQGSC [D4S + P5Y + S11K], -7.03 ± 0.04 kcal/mol; that for FERDPLMMPWSFLQSRQGSC [TNF1], -5.21 ± 0.07 kcal/mol.
Same read-out and setting: then FERYPLMMPWSFLQSRQGSC [Synbody D4Y], with -5.95 ± 0.06 kcal/mol; and FERYPLMMPWKFLQSRQGSC [D4Y + S11K], with -6.67 ± 0.05 kcal/mol.

Staying with this test, now noted: energetic additivity of component mutations; read-out: Predicted Kd.
As for FERYPLKMPWSFLQSRQGSC [D4Y + M7K], the Kd is 8.5 to 20 µM.
The same measure, in the same setting: the result for FERSYLMMPWKFLQSRQGSC [D4S + P5Y + S11K] reads 2.8 to 5.3 µM.
Take FERYPLMMPWKFLQSRQGSC [D4Y + S11K]: the Kd was 8 to 15 µM.

The test is the same for the next values; noted with them: sum of component contributions, energetic additivity.
Regarding FERYPLKMPWSFLQSRQGSC [D4Y + M7K], the “Predicted Binding ΔG” value was -6.66 ± 0.25 kcal/mol.
FERSYLMMPWKFLQSRQGSC [D4S + P5Y + S11K]: the “Predicted Binding ΔG” value is -7.38 ± 0.19 kcal/mol.

The values above are taken from patent US20120065123A1, “Synthetic Antibodies” (priority 2009, published 2012).
